Source: patent US4006238A, “Use of 2-(hydroxyalkyl)-1H-benz[de]isoquinoline-1,3(2H)-diones as anti-allergy agents” (E. R. Squibb & Sons, Inc., priority 1975, dated 1977)

Test system: reaginic antibody induced passive cutaneous anaphylaxis (PCA) reaction
Experiment: reaginic antibody induced passive cutaneous anaphylaxis (PCA) reaction in rats
Type: in vivo
Details: male rat; anti-Egg Albumin intradermal; two doses of test compound (75 mg./kg.) intraperitoneally, 90 and 10 minutes prior to intravenous Egg Albumin/Evans Blue challenge; scored thirty minutes after
Procedure: The compounds of formula I are anti-allergics which inhibit the effects of certain antigen-antibody reactions and in particular inhibit the release of mediators such as histamine. The anti-allergy activity of these compounds is determined by the reaginic antibody induced passive cutaneous anaphylaxis (PCA) reaction in rats. (See Bach, Immediate Hypersensitivity: Laboratory Models and Experimental Findings, Ann. Rep. Med. Chem., 7: 238-248 (1972), for a discussion of the predictability of clinical efficacy of compounds active in the PCA).
The experimental procedure employed is as follows. A male rat is given an intradermal injection on one flank of 0.05 ml. of antibody (reaginic) (anti-Egg Albumin). 24 hours later two doses of test compound (75 mg./kg.) are administered intraperitoneally, one dose ninety minutes and the other ten minutes prior to a 0.5 ml. intravenous injection of an antigen challenge (equal portions of Egg Albumin 4 mg./ml. and 1% Evans Blue Dye). […] A score is obtained according to the formula
Total score = (diameter) × (intensity)
wherein the intensity of the spot is rated on a scale of 1 to 3 as follows
and the diameter is determined by averaging in millimeters two measured diameters of the reaction.
The percent inhibition is calculated by comparing the scores obtained in both compound and non-compound treated animals according to a pre-determined standard curve relationship between score and the quantity of antibody used to elicit the reaction.

Compound	Percent Inhibition
O=C1c2cccc3cccc(c23)C(=O)N1CCCCO [2-(4-Hydroxybutyl)-1H-benz[de]isoquinoline-1,3(2H)-dione]	53%
O=C1c2cccc3cccc(c23)C(=O)N1CCO [2-(2-Hydroxyethyl)-1H-benz[de]isoquinoline-1,3(2H)-dione]	36%
O=C1c2cccc3cccc(c23)C(=O)N1CCCCCO [2-(5-Hydroxypentyl)-1H-benz[de]isoquinoline-1,3(2H)-dione]	8%
O=C1c2cccc3cccc(c23)C(=O)N1CO [2-(Hydroxymethyl)-1H-benz[de]isoquinoline-1,3(2H)-dione]	50%
O=C1c2cccc3cccc(c23)C(=O)N1CCCO [2-(3-Hydroxypropyl)-1H-benz[de]isoquinoline-1,3(2H)-dione]	52%
